Consider 1 compound from patent US20180064153A1, “Methods of Protecting Against Brain Injury” (priority 2016, published 2018).

For this assay, the system named is rats exposed to a low-pressure blast wave. To be noted: 30 days supplementation, 33/49.

Consider `NCCC(=O)O` [BA, beta-alanine], for which the “prevalence of well-adapted animals” value is recorded as 67%.
